Assay results reported in PubChem BioAssay AID256 (DTP/NCI, 2004).
Where “and” joins values, the source holds several entries; their conditions need not be identical. Equal values may be shown once. Inconclusive results and toxic doses are left out. Rule for the calls: active = survival T/C of 150% or more; inactive = T/C below 125% in these data.

Tested on: CD2F1 mice, L1210 leukemia ip, survival T/C
Assay: NCI In Vivo Anticancer Drug Screen. Data for tumor model L1210 Leukemia (intraperitoneal) in CD2F1 (CDF1) mice
Conditions: higher = longer survival
Procedure, shortened: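 Read-out first: treated-group measurement over vehicle-control measurement, expressed as a ratio. Animals bore a transplanted tumor line and were dosed with compound or vehicle.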

[1] = endpoint: mean survival time, dose: 100.0 mg/kg/injection, schedule: Q01DX009 (ip), vehicle: saline
[2] = endpoint: mean survival time, dose: 100.0 mg/kg/injection, schedule: Q04DX003 (ip), vehicle: saline with Tween-80
[3] = endpoint: mean survival time, dose: 200.0 mg/kg/injection, schedule: Q04DX003 (ip), vehicle: saline with Tween-80
[4] = endpoint: mean survival time, dose: 400.0 mg/kg/injection, schedule: Q04DX003 (ip), vehicle: saline with Tween-80
[5] = endpoint: mean survival time, dose: 100.0 mg/kg/injection, schedule: Q01DX009 (ip), vehicle: saline with Tween-80
[6] = endpoint: mean survival time, dose: 200.0 mg/kg/injection, schedule: Q01DX009 (ip), vehicle: saline with Tween-80
[7] = endpoint: mean survival time, dose: 400.0 mg/kg/injection, schedule: Q01DX009 (ip), vehicle: saline with Tween-80
[8] = endpoint: mean survival time, dose: 100.0 mg/kg/injection, schedule: Q01DX009 (ip), vehicle: other
[9] = endpoint: mean survival time, dose: 100.0 mg/kg/injection, schedule: Q04DX002 (ip), vehicle: saline with Tween-80
[10] = endpoint: mean survival time, dose: 200.0 mg/kg/injection, schedule: Q04DX002 (ip), vehicle: saline with Tween-80
[11] = endpoint: median survival time, dose: 25.0 mg/kg/injection, schedule: Q01DX005 (ip), vehicle: saline with Tween-80
[12] = endpoint: median survival time, dose: 50.0 mg/kg/injection, schedule: Q01DX005 (ip), vehicle: saline with Tween-80
[13] = endpoint: median survival time, dose: 100.0 mg/kg/injection, schedule: Q01DX005 (ip), vehicle: saline with Tween-80
[14] = endpoint: median survival time, dose: 200.0 mg/kg/injection, schedule: Q01DX005 (ip), vehicle: saline with Tween-80
[15] = endpoint: mean survival time, dose: 25.0 mg/kg/injection, schedule: Q01DX009 (ip), vehicle: saline with Tween-80

Measured: T/C

NCC(=O)Nc1ccccc1
inactive: [1] 103 % of control | endpoint: mean survival time, dose: 200.0 mg/kg/injection, schedule: Q01DX009 (ip), vehicle: saline 113 % of control | endpoint: mean survival time, dose: 400.0 mg/kg/injection, schedule: Q01DX009 (ip), vehicle: saline 97 % of control

COc1cc(NCCCCNC(C)C)c2ncccc2c1
inactive: endpoint: mean survival time, dose: 75.0 mg/kg/injection, schedule: Q01DX001 (ip), vehicle: saline 95 % of control

CCCCCCCCCC(C(=O)OCC)(C(=O)OCC)C1CCCC1
inactive: endpoint: mean survival time, dose: 100.0 mg/kg/injection, schedule: Q01DX001 (ip), vehicle: saline sonified 106 % of control | [2] 100 % of control | endpoint: mean survival time, dose: 200.0 mg/kg/injection, schedule: Q01DX001 (ip), vehicle: saline sonified 100 % of control | [3] 100 % of control | endpoint: mean survival time, dose: 400.0 mg/kg/injection, schedule: Q01DX001 (ip), vehicle: saline sonified 90 % of control | [4] 97 % of control

Cc1cc(NCCCCCCNc2cc(C)[n+](C)c3c(Cl)cccc23)c2cccc(Cl)c2[n+]1C
inactive: endpoint: mean survival time, dose: 12.5 mg/kg/injection, schedule: Q01DX009 (ip), vehicle: Klucel (hydroxypropylcellulose) (HPC) 98 % of control | endpoint: mean survival time, dose: 25.0 mg/kg/injection, schedule: Q01DX009 (ip), vehicle: Klucel (hydroxypropylcellulose) (HPC) 98 % of control | endpoint: mean survival time, dose: 50.0 mg/kg/injection, schedule: Q01DX009 (ip), vehicle: Klucel (hydroxypropylcellulose) (HPC) 94 % of control

CC(=O)c1ccc(Br)c([N+](=O)[O-])c1
inactive: endpoint: mean survival time, dose: 100.0 mg/kg/injection, schedule: Q01DX009 (ip), vehicle: Klucel (hydroxypropylcellulose) (HPC) 102 % of control | endpoint: mean survival time, dose: 100.0 mg/kg/injection, schedule: Q04DX003 (ip), vehicle: Klucel (hydroxypropylcellulose) (HPC) 96 % of control | endpoint: mean survival time, dose: 200.0 mg/kg/injection, schedule: Q01DX009 (ip), vehicle: Klucel (hydroxypropylcellulose) (HPC) 98 % of control | endpoint: mean survival time, dose: 200.0 mg/kg/injection, schedule: Q04DX003 (ip), vehicle: Klucel (hydroxypropylcellulose) (HPC) 100 % of control | endpoint: mean survival time, dose: 400.0 mg/kg/injection, schedule: Q01DX009 (ip), vehicle: Klucel (hydroxypropylcellulose) (HPC) 102 % of control | endpoint: mean survival time, dose: 400.0 mg/kg/injection, schedule: Q04DX003 (ip), vehicle: Klucel (hydroxypropylcellulose) (HPC) 105 % of control

c1ccc2nc3c4ccccc4c4ccccc4c3nc2c1
inactive: endpoint: mean survival time, dose: 100.0 mg/kg/injection, schedule: Q04DX002 (ip), vehicle: Klucel (hydroxypropylcellulose) (HPC) 97 % of control | endpoint: mean survival time, dose: 200.0 mg/kg/injection, schedule: Q04DX002 (ip), vehicle: Klucel (hydroxypropylcellulose) (HPC) 97 % of control | endpoint: mean survival time, dose: 400.0 mg/kg/injection, schedule: Q04DX002 (ip), vehicle: Klucel (hydroxypropylcellulose) (HPC) 97 % of control

CCOC(=O)NC(C)(C)CN(C(=O)OCC)C(C)(C)CO
inactive: endpoint: mean survival time, dose: 50.0 mg/kg/injection, schedule: Q01DX009 (ip), vehicle: saline 102 % of control | [1] 98 % of control

CCOC1OC(COC(C)=O)C(OC(C)=O)C(OC(C)=O)C1OC(C)=O (configuration not stated)
inactive: endpoint: mean survival time, dose: 100.0 mg/kg/injection, schedule: Q01DX001 (ip), vehicle: saline with Tween-80 94 % of control | endpoint: mean survival time, dose: 200.0 mg/kg/injection, schedule: Q01DX001 (ip), vehicle: saline with Tween-80 97 % of control | endpoint: mean survival time, dose: 400.0 mg/kg/injection, schedule: Q01DX001 (ip), vehicle: saline with Tween-80 96 % of control

CC(=O)c1ccc(N=Nc2c(N)nc(N)nc2N)cc1
inactive: [5] 92 % of control | [2] 89 % of control | [6] 97 % of control | [3] 87 % of control | [7] 98 % of control | [4] 89 % of control

COc1ccc(/C=N/NC(=O)c2ccccc2)cc1OC
inactive: endpoint: mean survival time, dose: 12.5 mg/kg/injection, schedule: Q01DX009 (ip), vehicle: other 98 % of control | endpoint: mean survival time, dose: 25.0 mg/kg/injection, schedule: Q01DX009 (ip), vehicle: other 105 % of control | endpoint: mean survival time, dose: 50.0 mg/kg/injection, schedule: Q01DX009 (ip), vehicle: other 105 % of control | [8] 107 % of control | endpoint: mean survival time, dose: 200.0 mg/kg/injection, schedule: Q01DX009 (ip), vehicle: other 107 % of control

Cc1ccc(/C(=N\Nc2ccc([N+](=O)[O-])cc2[N+](=O)[O-])C2CC2c2ccccc2)cc1 (configuration not stated)
inactive: endpoint: mean survival time, dose: 50.0 mg/kg/injection, schedule: Q04DX002 (ip), vehicle: saline with Tween-80 91 % of control | [9] 105 % of control | [10] 91 % of control

COc1nc(NC2OC(CO)C(O)C(O)C2O)c(C(C)=O)c(=O)n1C (configuration not stated)
inactive: endpoint: median survival time, dose: 12.5 mg/kg/injection, schedule: Q01DX005 (ip), vehicle: saline with Tween-80 94 % of control | [11] 98 % of control | [12] 100 % of control | [13] 97 % of control | [14] 98 % of control

CC(=O)OCC1OC(n2cnc3c(I)nc(I)nc32)C(OC(C)=O)C1OC(C)=O (configuration not stated)
inactive: [11] 105 % of control | [12] 95 % of control | [13] 96 % of control | [14] 95 % of control

Cc1cc2nc(Cc3ccccc3)[nH]c2cc1C
inactive: endpoint: mean survival time, dose: 12.5 mg/kg/injection, schedule: Q01DX009 (ip), vehicle: saline with Tween-80 102 % of control | [15] 95 % of control | endpoint: mean survival time, dose: 50.0 mg/kg/injection, schedule: Q01DX009 (ip), vehicle: saline with Tween-80 91 % of control | [2] 94 % of control | [3] 86 % of control

Cc1ccc(CNC2=C(Cl)C(=O)c3ccccc3C2=O)cc1
inactive: endpoint: mean survival time, dose: 6.25 mg/kg/injection, schedule: Q04DX003 (ip), vehicle: saline with Tween-80 95 % of control | endpoint: mean survival time, dose: 12.5 mg/kg/injection, schedule: Q04DX003 (ip), vehicle: saline with Tween-80 98 % of control | endpoint: mean survival time, dose: 25.0 mg/kg/injection, schedule: Q04DX003 (ip), vehicle: saline with Tween-80 94 % of control and 97 % of control

CCN(C(=O)Nc1cc(OC)ccc1OC)c1ccc(Cl)cc1
inactive: [5] 96 % of control | [6] 96 % of control | [7] 93 % of control

COc1ccc(/C=C(\C)[N+](=O)[O-])cc1OC
inactive: endpoint: mean survival time, dose: 12.5 mg/kg/injection, schedule: Q01DX009 (ip), vehicle: water 105 % of control | endpoint: mean survival time, dose: 25.0 mg/kg/injection, schedule: Q01DX009 (ip), vehicle: water 93 % of control | endpoint: mean survival time, dose: 50.0 mg/kg/injection, schedule: Q01DX009 (ip), vehicle: water 93 % of control

COc1ccccc1C(=O)NS(=O)(=O)c1ccc(Cl)cc1
inactive: endpoint: mean survival time, dose: 100.0 mg/kg/injection, schedule: Q01DX009 (ip), vehicle: acetone 101 % of control | endpoint: mean survival time, dose: 200.0 mg/kg/injection, schedule: Q01DX009 (ip), vehicle: acetone 107 % of control

CC1CP(c2ccccc2)(c2ccccc2)(c2ccccc2)OC1(C(=O)c1ccccc1)c1ccccc1 (configuration not stated)
inactive: [15] 89 % of control | [2] 91 % of control

O=C(COc1ccc(Cl)cc1Cl)OCCI
inactive: [9] 97 % of control | [10] 102 % of control

O=C(CBr)c1cc2ncccc2c2ccccc12
inactive: [8] 101 % of control

CC(=O)Nc1nc(Br)c2ccccc2c1-c1ccc(N)cc1
inactive: endpoint: mean survival time, dose: 50.0 mg/kg/injection, schedule: Q04DX003 (ip), vehicle: other 97 % of control | endpoint: mean survival time, dose: 100.0 mg/kg/injection, schedule: Q04DX003 (ip), vehicle: other 94 % of control | endpoint: mean survival time, dose: 200.0 mg/kg/injection, schedule: Q04DX003 (ip), vehicle: other 94 % of control | endpoint: mean survival time, dose: 400.0 mg/kg/injection, schedule: Q04DX003 (ip), vehicle: other 102 % of control

CCOC(=O)c1ccc(N/C(C)=C/C(=O)OC)cc1
inactive: endpoint: mean survival time, dose: 75.0 mg/kg/injection, schedule: Q04DX003 (ip), vehicle: saline 94 % of control | endpoint: mean survival time, dose: 150.0 mg/kg/injection, schedule: Q04DX003 (ip), vehicle: saline 91 % of control
